Experiments:
[1] = system: human influenza virus H1N1 A/WSN/33 strain; assay: Hemagglutination (HA) activity of treated IFV with chicken red blood cells; conditions: 50 mM MBCD
Protocol: Hemagglutination (HA) activity is determined as follows. Freshly isolated chicken blood is washed three times with PBS, and the red blood cells (RBC) are resuspended in PBS at a concentration of 1%. Virus dilutions (50 μL) are made in PBS and mixed with 50 μL of the RBC suspension. The mixture is added to individual wells in a 96-well plate and the RBC are allowed to settle for 45 minutes. The wells are judged to be HA negative (i.e. no agglutination of RBC) if a dot or pellet of RBC is present, and a well is judged to be positive if a smooth suspension of RBC is present.
In addition to MBCD, another lipid solvent, diisopropyl ether (DIPE) is used to delipidate IFV. […] After a brief centrifugation at 2,000×g for 3 minutes, visible solvent is removed, and the aqueous materials are left to dry in a fume hood for 20 minutes. The samples are then centrifuged at 200,000×g for 30 minutes to recover virus particles.

PRRSV-RESP = assay: Blind passage assay of delipidated PRRSV on Marc-145 cells; assay type: cell-based; conditions: 100 mM MBCD for 90 minutes

## methyl β-cyclodextrin [MBCD]
[1]; 37° C., 30 minutes
  HA units: 32 HA units
  effect on HA activity (in words): same degree as 2%-8% DIPE
[1]; 45 minutes
  effect on HA activity (in words): not measurably affected
[1]; end-over-end rotation at 37° C. for 45 minutes
  HA units: 32 HA units
PRRSV-RESP
  plaques detected by the blind passage assay: no plaques are detected
